Measurements reported in patent US7390630B1, “Method of identifying a compound that selectively inhibits cytokine-stimulated T cell induced production of TNF-alpha by monocytes” (Mathilda and Terence Kennedy Institute of Rheumatology Trust, priority 1999, dated 2008).
pIC50: −log10 of the molar value.

Assays:
[1] = test system: monocyte TNFα production induced by anti-CD3 antibody stimulated T-cells (Ttcr cells); test: Ttcr cell-induced TNFα production by monocytes (co-culture, ELISA); assay type: cell-based, Human; conditions: Homo sapiens, Monocyte; T cells:monocytes 5:1, 18 h co-culture; read-out: IC50, inhibition of monocyte TNFα production induced by Ttcr cells
Description: Human peripheral blood T cells and monocytes were isolated from single donor plateletpheresis residues (purchased from the North London Blood Transfusion service, Colindale, GB). Mononuclear cells were isolated by Ficoll/Hypaque centrifugation (specific density 1.077 g/ml, Nycomed Pharma AS, Oslo, Norway), prior to cell separation in a Beckman JE6 elutriator. Elutriation was performed in culture medium containing 1% heat-inactivated foetal calf serum (FCS) using methods known in the art (see Sebbag et al., 1997, Parry et al., 1997). T cell and monocyte purity were assessed by flow cytometry (see Sebbag et al., 1997).
Ttcr cells: Ttcr cells were prepared from elutriation enriched T cells by resuspending the cells at a density of 10^6 cells/ml in RPMI 1640 (containing 10% heat inactivated AB+ human serum (Biowhittaker, UK). Following resuspension, the cells were incubated (at 37° C. in a 5% CO2/95% humidified incubator) in 6-well culture plates with immobilised anti-CD3 monoclonal antibodies for 24 hours (OKT3, ATCC, Maryland, USA), the antibodies having previously been coated on to the 6-well culture plates at 10 μg/ml (overnight at 4° C.).
Following completion of the culture period, the Tck and Ttcr cells were harvested and washed three times in RPMI medium containing 1% heat-inactivated fetal calf serum (FCS), prior to fixation for 1 minute at 0° C. in PBS containing 0.05% glutaraldehyde, and neutralized with an equivalent volume of T lymphocyte neutralizing buffer containing 0.2 M glycine. […]
Reagents for the TNFα ELISA were provided by Dr. W. Buurman (Rijks Universiteit Limburg, Maastricht, Netherlands). […] The rabbit polyclonal antibody was detected using a peroxidase-conjugated goat anti-rabbit IgG (H+L) (Jackson Immunoresearch Laboratories Inc., Westgrove, PE, USA) followed by an appropriate substrate. […]
Monocytes were treated with M-CSF for 2 days as described above, infected with adenovirus containing either an insert encoding IκBα (AdvIκBα) or no insert (Adv0). The effect of IκBα over-expression on T cell-induced monocyte (ratio 5:1) TNFα production was then determined.

[2] = test system: TNFα production in osteoarthritis (OA) synovial cultures; test: TNFα production in osteoarthritis (OA) synovial cultures; assay type: cell-based, Human; conditions: 48 h
Description: Osteoarthritis (OA) mononuclear cells were obtained from synovial tissue specimens provided by the Rheumatology Clinic, Charing Cross Hospital, London, UK. As in the case of RA cells (above), OA synovial tissue was teased into small pieces and digested in medium containing 0.15 mg/ml DNase type 1 (Sigma, UK) and 5 mg/ml collagenase (Roche, UK) for 1 to 2 hours at 37° C. After passing cells through nylon mesh to exclude cell debris, cells were washed and resuspended in RPMI medium (BioWhittaker, Verviers, Belgium) (containing 10% heat-inactivated FCS) at a density of 1×10^6 cells/ml and used immediately.
Reagents for the TNFα ELISA were provided by Dr. W. Buurman (Rijks Universiteit Limburg, Maastricht, Netherlands). The ELISA was performed using immobilized anti-TNFα mAb 61E71. and developed using a rabbit anti-TNFα polyclonal antibody. An alternative ELISA for TNFα is commercially available from Pharmingen. The rabbit polyclonal antibody was detected using a peroxidase-conjugated goat anti-rabbit IgG (H+L) (Jackson Immunoresearch Laboratories Inc., Westgrove, PE, USA) followed by an appropriate substrate. The sensitivity range of the assay was 1.6 to 5000 pg/ml.
The effect of the PI3 kinase inhibitor, LY294002, was studied on TNFα production in osteoarthritis (OA) synovial cultures. OA synovial joint cultures were cultured for 48 hours in the presence of increasing concentrations of the PI3 kinase inhibitor, LY294002. Culture supernatants were then harvested and assayed for TNFα (pg/ml) by ELISA.

## O=c1cc(N2CCOCC2)oc2c(-c3ccccc3)cccc12 [LY294002]
[1]
  pIC50: 7.15
[2]; culture OA 1833, LY 294002 0.005 μM, 0.0 μM: 224 ± 15
  TNFα production: 236 ± 11 pg/mL
[2]; culture OA 1833, LY 294002 0.05 μM, 0.0 μM: 224 ± 15
  TNFα production: 235 ± 22 pg/mL
[2]; culture OA 1833, LY 294002 0.5 μM, 0.0 μM: 224 ± 15
  TNFα production: 233 ± 28 pg/mL
[2]; culture OA 1833, LY 294002 5.0 μM, 0.0 μM: 224 ± 15
  TNFα production: 202 ± 15 pg/mL
[2]; culture OA 1833, LY 294002 50.0 μM, 0.0 μM: 224 ± 15
  TNFα production: 204 ± 5 pg/mL
[2]; culture OA 1840, LY 294002 0.005 μM, 0.0 μM: 635 ± 19
  TNFα production: 612 ± 13 pg/mL
[2]; culture OA 1840, LY 294002 0.05 μM, 0.0 μM: 635 ± 19
  TNFα production: 642 ± 32 pg/mL
[2]; culture OA 1840, LY 294002 0.5 μM, 0.0 μM: 635 ± 19
  TNFα production: 597 ± 38 pg/mL
[2]; culture OA 1840, LY 294002 5.0 μM, 0.0 μM: 635 ± 19
  TNFα production: 651 ± 50 pg/mL
[2]; culture OA 1840, LY 294002 50.0 μM, 0.0 μM: 635 ± 19
  TNFα production: 600 ± 31 pg/mL
[2]; culture OA 1851, LY 294002 0.005 μM, 0.0 μM: 227 ± 19
  TNFα production: 236 ± 13 pg/mL
[2]; culture OA 1851, LY 294002 0.05 μM, 0.0 μM: 227 ± 19
  TNFα production: 250 ± 12 pg/mL
[2]; culture OA 1851, LY 294002 0.5 μM, 0.0 μM: 227 ± 19
  TNFα production: 237 ± 63 pg/mL
[2]; culture OA 1851, LY 294002 5.0 μM, 0.0 μM: 227 ± 19
  TNFα production: 233 ± 15 pg/mL
[2]; culture OA 1851, LY 294002 50.0 μM, 0.0 μM: 227 ± 19
  TNFα production: 246 ± 31 pg/mL
[2]; culture OA 1861, LY 294002 0.005 μM, 0.0 μM: 155 ± 42
  TNFα production: 141 ± 33 pg/mL
[2]; culture OA 1861, LY 294002 0.05 μM, 0.0 μM: 155 ± 42
  TNFα production: 127 ± 5 pg/mL
[2]; culture OA 1861, LY 294002 0.5 μM, 0.0 μM: 155 ± 42
  TNFα production: 145 ± 29 pg/mL
[2]; culture OA 1861, LY 294002 5.0 μM, 0.0 μM: 155 ± 42
  TNFα production: 131 ± 44 pg/mL
[2]; culture OA 1861, LY 294002 50.0 μM, 0.0 μM: 155 ± 42
  TNFα production: 215 ± 9 pg/mL
[2]; culture OA 1862, LY 294002 0.005 μM, 0.0 μM: 141 ± 35
  TNFα production: 166 ± 31 pg/mL
[2]; culture OA 1862, LY 294002 0.05 μM, 0.0 μM: 141 ± 35
  TNFα production: 171 ± 55 pg/mL
[2]; culture OA 1862, LY 294002 0.5 μM, 0.0 μM: 141 ± 35
  TNFα production: 185 ± 7 pg/mL
[2]; culture OA 1862, LY 294002 5.0 μM, 0.0 μM: 141 ± 35
  TNFα production: 226 ± 100 pg/mL
[2]; culture OA 1862, LY 294002 50.0 μM, 0.0 μM: 141 ± 35
  TNFα production: 205 ± 19 pg/mL
[2]; varying concentrations, five different samples
  effect on TNFα production in cultures of OA synovial tissue: no significant effect
